Measured values published in ChEMBL document CHEMBL6127143, “From Virtual Screens to Cellular Target Engagement: New Small Molecule Ligands for the Immune Checkpoint LAG-3” (ACS Med Chem Lett, 2024).

System: Raji
Assay: Cytotoxicity against human Raji cells expressing human LAG3 assessed as reduction in cell viability incubated for 1 hrs by trypan blue staining based analysis
Format: toxicity

## O=C(O)c1cccc(C(=O)NC2CCN(c3ccc(C(F)(F)F)cn3)CC2)c1
  Activity: Non-Toxic

## Cc1nc(C(F)(F)F)nc(-c2cc(NCCN(C)C)nc3[nH]ccc23)c1C
  Activity: Non-Toxic
